Here are results for two compounds from publication PMC8073686, “Characterization of Subtype Selective Cannabinoid CB2 Receptor Agonists as Potential Anti-Inflammatory Agents” (Pharmaceuticals, 2021).

Structures are written as SMILES.

In general, Ki refers to a measure of affinity in units of concentration, obtained from inhibition or displacement. Low values mean higher affinity, high ones lower affinity.

One test concerns the target T1, CB2 (Homo sapiens, UniProt P34972).
T1 construct: expressed in transfected cells; host or cells: HEK293T cells, calcium phosphate transfection, membrane preparation
Briefly: Competitive [3H]CP55,940 radioligand binding, CB2-transfected HEK293T cell membrane. To be noted: competition with [3H]CP55,940; mean ± S.D. From the text:
To evaluate binding affinity of ABK5 analogs that have a difference in the position of substituents in the N-phenyl ring (Figure 1), we performed competitive radiolabeled ligand binding assays using cell membrane from HEK293T cells transfected with human CB2 receptors. […] ABK5-1, ABK5-2, and ABK5-6 dose-dependently competed with [^3H]CP55,940 and decreased the specific binding of the radiolabeled agonist, which reflects the binding of test compounds to CB2. […] Therefore, ABK5-5 was not considered for further evaluation in this study. […] We also examined CB2 selectivity (versus CB1) of the three compounds by performing similar binding assays using membrane from CB1 expressing HEK293 cells instead of CB2 expressing cells. […] Therefore, ABK5-1 and 5-2 maintained the CB2 subtype selectivity of ABK5.
In the experiment, 1 × 10^6 HEK293T cells were seeded in a 10-cm cell culture dish and cultured for 24 h. Cells were transfected with CB1 or CB2 using the calcium phosphate method. Approximately one day after transfection, cells were harvested and centrifuged at 4 °C for 5 min at 500× g. The pellet was washed with phosphate buffered saline (PBS) twice and resuspended in PBS containing 1% protease-inhibitor cocktail (Sigma-Aldrich, St. Louis, MO, USA) consisting of 104 mM 4-(2-aminoethyl) benzene sulfonyl fluoride hydrochloride (AEBSF), 80 μM apronitin, 4 mM bestatin, 1.64 mM E-64, 2 mM leupeptin, 1.5 mM pepstatin A. Then the cells were subjected to nitrogen cavitation under 750 psi for 5 min using a Parr cell disruption bomb. The lysate was centrifuged at 500× g for 10 min at 4 °C and the supernatant was spun at 116,000× g for 45 min at 4 °C. The pellet, consisting of the cell membrane expressing CB1 or CB2, was resuspended in TME buffer solution (25 mM Tris-HCl, 5 mM MgCl2, and 1 mM EDTA, pH 7.4) with 7% (w/v) sucrose/TME buffer. The concentration of the membrane protein was determined by the Bradford assay (Bradford, 1976).
Membrane protein was mixed with 1 nM to 10 μM of the test compounds and 1 nM [^3H]CP55,940 (164.9 Ci/mmol; PerkinElmer life Sciences, Waltham, MA, USA), and TME buffer supplemented with 0.2% BSA was used to bring the total volume to 200 μL. [^3H]CP55,940 acts as tracer and agonists that bind the target receptor compete with [^3H]CP55,940. Samples were incubated for 1 h at 30 °C. Ten μM unlabeled CP55,940 was used to determine non-specific binding. […] A Beckman Coulter 6500 liquid scintillation counter was used to measure the radioactivity of the samples.
Results are presented as the mean ± standard deviation (S.D.). […] The Ki values in the ligand binding assay were calculated using the Prism software (GraphPad Software Inc., San Diego, CA, USA), using IC50 values obtained from non-linear regression fitted to the one-site binding model. […]

In test [1] the test system is TNF-α production in Jurkat cells. Nature of the test: PHA/PMA-induced TNF-α production in Jurkat cells (ELISA of culture medium). Format: cell-based, human. The settings on record: 10 μM, 24 h. The protocol: Activation of CB2 is known to have anti-inflammatory effects. There are some studies reporting that CB2 agonists decrease cytokine production in immune cells. We also reported that the cannabinoid receptor agonist CP55,940 and ABK5 inhibit cytokine production in the human T cell lines Jurkat and MOLT-4 [24]. Since ABK5-1 and 5-2 were confirmed to be CB2-subtype selective agonists, we were interested to determine whether these compounds also have anti-inflammatory effects. Note, although ABK5-6 had marginally better binding affinity to CB2, it bound to CB1 very, very weakly (i.e., micromolar range). Therefore ABK5-6 was not selected for further evaluations. […] To test if these mRNA changes are reflected in the protein levels of cytokines, the IL-2 and TNF-α concentration in the cell culture medium were measured by ELISA. […]
Figure 4 Effect of ABK5-1 and ABK5-2 on phytohemagglutinin (PHA)/phorbol 12-myristate 13-acetate (PMA)-induced cytokine production in T cells. […] IL-2 and TNF-α mRNA levels were determined by real-time PCR (RT-PCR) after ABK5-1 treatment and (A) 3 h and (B) 24 h of PHA/PMA (phytohemagglutinin/phorbol 12-myristate 13-acetate) stimulation. […] IL-2 and TNF-α mRNA were also examined after ABK5-2 treatment and (E) 3 h and (F) 24 h of stimulation, and protein levels of (G) IL-2 and (H) TNF-α were measured after 24 h stimulation. […]

T1 sequence (P34972 whole entry): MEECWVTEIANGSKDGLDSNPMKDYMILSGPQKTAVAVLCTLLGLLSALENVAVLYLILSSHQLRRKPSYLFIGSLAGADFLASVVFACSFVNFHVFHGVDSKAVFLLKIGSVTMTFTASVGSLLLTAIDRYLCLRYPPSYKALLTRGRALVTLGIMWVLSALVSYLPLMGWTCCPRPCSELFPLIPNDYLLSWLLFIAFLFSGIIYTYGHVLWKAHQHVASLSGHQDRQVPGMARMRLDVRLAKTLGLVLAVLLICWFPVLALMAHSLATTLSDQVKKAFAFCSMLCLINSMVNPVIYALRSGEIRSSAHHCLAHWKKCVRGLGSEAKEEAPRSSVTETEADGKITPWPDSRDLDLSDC

In the case of `CCOC(=O)c1ccccc1NC(=O)CN(c1c(C)cccc1C)S(=O)(=O)c1ccccc1` [ABK5-2], on CB2, the affinity corresponds to a Ki of 69 ± 19 nM. The “decrease of TNF-α production (protein, ELISA)” value in test [1] is on record as around 43%.

Take `CCOC(=O)c1ccccc1NC(=O)CN(c1ccc(C)cc1C)S(=O)(=O)c1ccccc1` [ABK5-1]: at CB2, the affinity, expressed as Ki, was 28 ± 5 nM. The “decrease of TNF-α production (protein, ELISA)” value in test [1] is on record as around 37%.
